Source: ChEMBL document CHEMBL1201862, “PubChem BioAssay data set” (2004)
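Cells were grown in 96-well plates and exposed to each compound for 48 hours at five concentrations; endpoints were interpolated linearly between bracketing concentrations, or set to the highest concentration if not reached. GI50 is the concentration that inhibits growth by half.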 Activity calls are given as the source filed them. Rule as the data show it: active = GI50 up to about 1.1 µM and inactive = higher.

How the values were obtained:
Experiment in all cases: NCI anticancer screen, dose series, 48 h
A498 = tested on: A498
CCRF-CEM = tested on: CCRF-CEM
EKVX = tested on: EKVX
HCT-116 = tested on: HCT-116
IGROV-1 = tested on: IGROV-1
K562 = tested on: K562
LOX IMVI = tested on: LOX IMVI
Malme-3M = tested on: Malme-3M
NCI/ADR-RES = tested on: NCI/ADR-RES
OVCAR-3 = tested on: OVCAR-3
OVCAR-5 = tested on: OVCAR-5
OVCAR-8 = tested on: OVCAR-8
PC-3 = tested on: PC-3
RPMI-8226 = tested on: RPMI-8226
SF-268 = tested on: SF-268
SK-MEL-28 = tested on: SK-MEL-28
SN12C = tested on: SN12C
SNB-19 = tested on: SNB-19
UACC-257 = tested on: UACC-257
UACC-62 = tested on: UACC-62

Row | SMILES | GI50 (A498) | GI50 (CCRF-CEM) | GI50 (EKVX) | GI50 (HCT-116) | GI50 (IGROV-1) | GI50 (K562) | GI50 (LOX IMVI) | GI50 (Malme-3M) | GI50 (NCI/ADR-RES) | GI50 (OVCAR-3) | GI50 (OVCAR-5) | GI50 (OVCAR-8) | GI50 (PC-3) | GI50 (RPMI-8226) | GI50 (SF-268) | GI50 (SK-MEL-28) | GI50 (SN12C) | GI50 (SNB-19) | GI50 (UACC-257) | GI50 (UACC-62)
1 | Clc1ccc(Cl)c(NNc2cc(Cl)ccc2Cl)c1 | > 10 µM (inactive) | 3.63 µM (inactive) | 4.45 µM (inactive) | 3.84 µM (inactive) | 4.67 µM (inactive) | > 10 µM (inactive) | 3.57 µM (inactive) | 3.82 µM (inactive) | 2.92 µM (inactive) | 3.08 µM (inactive) | > 10 µM (inactive) | 7.64 µM (inactive) | 3.66 µM (inactive) | 4.3 µM (inactive) | 4.69 µM (inactive) | 6.38 µM (inactive) | 4.07 µM (inactive) | 9.79 µM (inactive) | > 10 µM (inactive) | 3.88 µM (inactive)
2 | CNC(=O)N(C)/N=N/CCCl | > 100 µM (inactive) | > 100 µM (inactive) | > 100 µM (inactive) | > 100 µM (inactive) | > 100 µM (inactive) | > 100 µM (inactive) | > 100 µM (inactive) | > 100 µM (inactive) | > 100 µM (inactive) | > 100 µM (inactive) | > 100 µM (inactive) | > 100 µM (inactive) | > 100 µM (inactive) | > 100 µM (inactive) | > 100 µM (inactive) | > 100 µM (inactive) | > 100 µM (inactive) | > 100 µM (inactive) | > 100 µM (inactive) | > 100 µM (inactive)
3 | COC(=O)C1(Cc2ccc3c(c2)CCC3)Cc2ccccc2C1O (stereo not given) | 18.2 µM (inactive) | 13.1 µM (inactive) | 22.8 µM (inactive) | 17.4 µM (inactive) | 21.6 µM (inactive) | 12.2 µM (inactive) | 15.1 µM (inactive) | 18.1 µM (inactive) | 18.7 µM (inactive) | 20.5 µM (inactive) | 28.6 µM (inactive) | 18.6 µM (inactive) | 11.5 µM (inactive) | 24.5 µM (inactive) | 19.4 µM (inactive) | 16.9 µM (inactive) | 15.2 µM (inactive) | 19.3 µM (inactive) | 15 µM (inactive) | 14.5 µM (inactive)
4 | COc1ccc(C(=O)N(C(=S)OCCOc2ccccc2)c2ccccc2)cc1 | 18.4 µM (inactive) | 14.9 µM (inactive) | 31.6 µM (inactive) | 29.2 µM (inactive) | > 100 µM (inactive) | 23.8 µM (inactive) | 52 µM (inactive) | 28.4 µM (inactive) | 37.2 µM (inactive) | 38 µM (inactive) | 88.3 µM (inactive) | 52.2 µM (inactive) | 35.4 µM (inactive) | 14.6 µM (inactive) | 44 µM (inactive) | > 100 µM (inactive) | 43.8 µM (inactive) | 83.8 µM (inactive) | 34.8 µM (inactive) | 48 µM (inactive)
5 | C=CCNC1=C2C[C@@H](C)C[C@@H](OC)[C@H](OC(=O)CN(C)C)[C@H](C)/C=C(\C)[C@@H](OC(N)=O)[C@H](OC)/C=C\C=C(/C)C(=O)NC(=CC1=O)C2=O | 0.262 µM (active) | 3.08 µM (inactive) | 1.28 µM (inactive) | 0.0871 µM (active) | 0.0942 µM (active) | 0.151 µM (active) | 0.0641 µM (active) | 0.0409 µM (active) | 8.22 µM (inactive) | 0.286 µM (active) | 10.3 µM (inactive) | 0.163 µM (active) | 0.0495 µM (active) | 0.832 µM (active) | 2.54 µM (inactive) | 0.0897 µM (active) | 0.0689 µM (active) | 0.585 µM (active) | 0.0748 µM (active) | 0.0467 µM (active)
6 | CCOC(=O)CN1CC(C2=C(O)CN(CC(=O)OCC)C2=O)=CC1=O | > 100 µM (inactive) | > 100 µM (inactive) | > 100 µM (inactive) | > 100 µM (inactive) | > 100 µM (inactive) | > 100 µM (inactive) | > 100 µM (inactive) | > 100 µM (inactive) | > 100 µM (inactive) | > 100 µM (inactive) | > 100 µM (inactive) | > 100 µM (inactive) | > 100 µM (inactive) | > 100 µM (inactive) | > 100 µM (inactive) | > 100 µM (inactive) | > 100 µM (inactive) | > 100 µM (inactive) | > 100 µM (inactive) | > 100 µM (inactive)
